Measurements reported in patent US6277861A, “Anti-convulsant isoquinolyl-benzamide derivatives” (SmithKline Beecham, p.l.c., priority 1997, dated 2001).
Structures can show the parent of a compound that is named as a salt.

Columns and labels:
[1] = system: maximal electroshock seizure threshold; assay: Maximal electroshock seizure (MEST) threshold test, mouse model; type: in vivo, mice; conditions: 10 mg/kg p.o. at 2 h
Experimental: The maximal electroshock seizure (MEST) threshold test in rodents is particularly sensitive for detecting potential anticonvulsant properties^1. In this model, anticonvulsant agents elevate the threshold to electrically-induced seizures whilst proconvulsants lower the seizure threshold.
Mice (naive male, Charles River, U.K. CD-1 strain, 25-30 g) are randomly assigned to groups of 10-20 and dosed orally or intraperitoneally at a dose volume of 10 ml/kg with various doses of compound (0.3-300 mg/kg) or vehicle. […] The mean current and standard error required to induce a tonic seizure in 50% (CC50) of the mice in a particular treatment group is determined by the `up and down` method of Dixon and Mood (1948)^2. Statistical comparisons between vehicle- and drug-treated groups are made using the method of Litchfield and Wilcoxon (1949)^3.
In control animals the CC50 is usually 14-18 mA. […] If a tonic convulsion does occur, then the current is decreased, and so on until all the animals in the group have been tested.
Studies are carried out using a Hugo Sachs Electronik Constant Current Shock Generator with totally variable control of shock level from 0 to 300 mA and steps of 2 mA are usually used.

[2] = system: maximal electroshock seizure threshold; assay: Maximal electroshock seizure (MEST) threshold test, rat model; type: in vivo, rats; conditions: percentage increase in CC50 compared to the control, suspended in 1% methyl cellulose
Experimental: The maximal electroshock seizure (MEST) threshold test in rodents is particularly sensitive for detecting potential anticonvulsant properties^1. In this model, anticonvulsant agents elevate the threshold to electrically-induced seizures whilst proconvulsants lower the seizure threshold. The threshold for maximal (tonic hindlimb extension) electroshock seizures in male rats (Sprague Dawley, 80-150 g, 6 weeks old) was determined by a Hugo Sachs Electronik stimulator which delivered a constant current (0.3 sec duration; from 1-300 mA in steps of 5-20 mA). The procedure is similar to that outlined above for mouse and full details are as published by Upton et al,.^4 The percentage increase or decrease in CC50 for each group compared to the control is calculated. Drugs are suspended in 1% methyl cellulose.

[3] = target: novel receptor obtainable from rat forebrain tissue ([3H]-Compound A binding site); assay: Radioligand binding assay, displacement of [3H]-Compound A from rat forebrain tissue; conditions: competition with [3H]-Compound A, Table
Experimental: WO 92/22293 (SmithKline Beecham) discloses compounds having anti-convulsantactivity, including inter alia the compound trans-(+)-6-acetyl-4S-(4-fluorobenzoylamino)-3,4-dihydro-2,2-dimethyl-2H-1-benzopyran-3R-ol (hereinafter referred to as Compound A). […] The affinity of test compounds to the novel receptor site is assessed as follows. Whole forebrain tissue is obtained from rats. The tissue is first homogenised in buffer (usually 50 mM Tris/HCl, pH 7.4). The homogenised tissue is washed by centrifugation and resuspension in the same buffer, then stored at -70° C. until used. To carry out the radioligand binding assay, aliquots of tissue prepared as above (usually at a concentration of 1-2 mg protein/ml) are mixed with aliquots of [3H]-Compound A dissolved in buffer. The final concentration of [3H]-Compound A in the mixture is usually 20 nM. The mixture is incubated at room temperature for 1 hour. [3H]-Compound A bound to the tissue is then separated from unbound [3H]-Compound A by filtration through Whatman GF/B glass fibre filters. The filters are then washed rapidly with ice-cold buffer. The amount of radioactivity bound to the tissue trapped on the filters is measured by addition of liquid scintillation cocktail to the filters followed by counting in a liquid scintillation counter. In order to determine the amount of "specific" binding of [3H]-Compound A, parallel assays are carried out as above in which [3H]-Compound A and tissue are incubated together in the presence of unlabelled Compound A (usually 3 μM). The amount of binding of [3H]-Compound A remaining in the presence of this unlabelled compound is defined as "non-specific" binding. This amount is subtracted from the total amount of [3H]-Compound A binding (i.e. that present in the absence of unlabelled compound) to obtain the amount of "specific" binding of [3H]-Compound A to the novel site. The affinity of the binding of test compounds to the novel site can be estimated by incubating together [3H]-Compound A and tissue in the presence of a range of concentrations of the compound to be tested. The decrease in the level of specific [3H]-Compound A binding as a result of competition by increasing concentrations of the compound under test is plotted graphically, and non-linear regression analysis of the resultant curve is used to provide an estimate of compound affinity in terms of pKi value.

pKI Compound A [3] | SMILES | percentage increases in seizure threshold [1] | Rat MEST at 2 mg/kg p.o at 2h (increases) [2]
– | COc1cc(OC(C)C)c(Cl)cc1C(=O)Nc1cccc2c1CCN(C)C2C (racemic) [Example 4, (±) N-(1,2-Dimethyl-1,2,3,4-tetrahydroisoquinolin-5-yl)-5-chloro-4-iso-propoxy-2-methoxybenzamide, hydrochloride] | 47% | –
– | COc1cc(C(C)(C)C)ccc1C(=O)Nc1cccc2c1CCN(C)C2C (racemic) [Example 5, (±) N-(1,2-Dimethyl-1,2,3,4-tetrahydroisoquinolin-5-yl)-tert-butyl-2-methoxybenzamide, hydrochloride] | 46% | –
– | COc1cc(C)c(C(F)(F)F)cc1C(=O)Nc1cccc2c1CCN(C)C2C (racemic) [Example 6, (±) N-(1,2-Dimethyl-1,2,3,4-tetrahydroisoquinolin-5-yl)-5-trifluoromethyl-2-methoxy-4-methyl benzamide, hydrochloride] | 36% | –
8.5 | COc1ccc(C(=O)Nc2ccc3c(c2)CN(C)CC3(C)C)cc1C(F)(F)F.Cl [Example 7, N-(2,4,4-Trimethyl-4H-isoquinolin-7-yl)-4-methoxy-3-trifluoromethylbenzamide, hydrochloride] | – | 510
8.0 | CC(C)c1ccc(C(=O)Nc2ccc3c(c2)CN(C)CC3(C)C)cc1C#N [Example 8, N-(2,4,4-Trimethyl-4H-isoquinolin-7-yl)-3-cyano-4-iso-propylbenzamide] | – | 120
8.3 | CCc1ccc(C(=O)Nc2ccc3c(c2)CN(C)CC3(C)C)cc1Br [Example 9, N-(2,4,4,-Trimethyl-4H-isoquinolin-7-yl)-3-bromo-4-ethylbenzamide] | – | 53
8.2 | CCOc1ccc(C(=O)Nc2ccc3c(c2)CN(C)CC3(C)C)cc1Br [Example 10, N-(2,4,4-Trimethyl-4H-isoquinolin-7-yl)-3-bromo-4-ethoxybenzamide] | – | 294
7.9 | CC(C)Oc1ccc(C(=O)Nc2ccc3c(c2)CN(C)CC3(C)C)cc1Cl [Example 11, N-(2,4,4-Trimethyl-4H-isoquinolin-7-yl)-3-chloro--4-iso-propoxybenzamide] | – | 204
